# According to publication PMC9217576, “Urease and α-Chymotrypsin Inhibitory Activities and Molecular Docking Studies of Alkaloids Isolated from Medicinal Plant Isatis minima Bunge” (Evidence-based Complementary and Alternative Medicine : eCAM, 2022):
# Like-named read-outs stand apart in the source and are kept apart here.
# Legend:
# Type in all cases: biochemical
# [1] = target: Bacillus pasteurii urease (Sporosarcina pasteurii, UniProt P41020); assay: In vitro urease inhibition assay (indophenol method); conditions: for IC50: SEM of five determinations, pH 6.8, 30°C
# α-chymotrypsin = α-chymotrypsin (Bos taurus, UniProt P00766); assay: In vitro chymotrypsin inhibition assay; conditions: for IC50: SEM of five determinations, Tris-HCl pH 7.6, 25°C
# Jack bean urease = Jack bean urease (Canavalia ensiformis, UniProt P07374); assay: biochemical; conditions: for IC50: SEM of five determinations, pH 6.8, 30°C
# [2] = Urease IC50 ± SEM (Bacillus pasteurii urease)
# [3] = read-out: Urease IC50 ± SEM (Bacillus pasteurii urease)
# [4] = Urease IC50 ± SEM (Jack bean urease)
# Sequence of Jack bean urease (P07374 whole entry, looked up): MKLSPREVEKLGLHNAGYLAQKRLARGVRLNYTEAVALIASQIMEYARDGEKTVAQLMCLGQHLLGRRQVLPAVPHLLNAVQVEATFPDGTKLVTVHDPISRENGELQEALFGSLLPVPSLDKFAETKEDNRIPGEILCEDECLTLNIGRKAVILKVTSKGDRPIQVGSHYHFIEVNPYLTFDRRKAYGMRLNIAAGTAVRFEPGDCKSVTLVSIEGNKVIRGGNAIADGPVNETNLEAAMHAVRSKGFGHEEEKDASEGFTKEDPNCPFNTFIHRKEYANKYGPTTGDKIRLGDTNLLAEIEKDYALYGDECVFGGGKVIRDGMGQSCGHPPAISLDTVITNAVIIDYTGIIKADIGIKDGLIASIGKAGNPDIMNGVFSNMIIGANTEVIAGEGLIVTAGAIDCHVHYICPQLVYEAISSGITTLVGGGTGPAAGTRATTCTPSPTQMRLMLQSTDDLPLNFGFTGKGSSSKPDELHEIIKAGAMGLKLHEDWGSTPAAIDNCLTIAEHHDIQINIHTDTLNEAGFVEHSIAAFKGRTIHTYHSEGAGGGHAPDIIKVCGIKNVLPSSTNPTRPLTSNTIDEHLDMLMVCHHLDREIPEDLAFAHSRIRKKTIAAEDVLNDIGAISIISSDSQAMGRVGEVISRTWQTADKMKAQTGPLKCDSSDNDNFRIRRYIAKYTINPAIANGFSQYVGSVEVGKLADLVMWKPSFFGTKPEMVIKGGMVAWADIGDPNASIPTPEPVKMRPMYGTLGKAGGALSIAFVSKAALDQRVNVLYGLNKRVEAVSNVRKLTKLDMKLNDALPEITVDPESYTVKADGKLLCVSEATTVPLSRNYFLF
# Sequence of Bacillus pasteurii urease (P41022 whole entry): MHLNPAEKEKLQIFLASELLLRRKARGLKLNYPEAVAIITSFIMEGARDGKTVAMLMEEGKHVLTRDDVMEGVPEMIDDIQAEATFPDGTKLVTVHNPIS
# Sequence of Bacillus pasteurii urease (P41020 whole entry): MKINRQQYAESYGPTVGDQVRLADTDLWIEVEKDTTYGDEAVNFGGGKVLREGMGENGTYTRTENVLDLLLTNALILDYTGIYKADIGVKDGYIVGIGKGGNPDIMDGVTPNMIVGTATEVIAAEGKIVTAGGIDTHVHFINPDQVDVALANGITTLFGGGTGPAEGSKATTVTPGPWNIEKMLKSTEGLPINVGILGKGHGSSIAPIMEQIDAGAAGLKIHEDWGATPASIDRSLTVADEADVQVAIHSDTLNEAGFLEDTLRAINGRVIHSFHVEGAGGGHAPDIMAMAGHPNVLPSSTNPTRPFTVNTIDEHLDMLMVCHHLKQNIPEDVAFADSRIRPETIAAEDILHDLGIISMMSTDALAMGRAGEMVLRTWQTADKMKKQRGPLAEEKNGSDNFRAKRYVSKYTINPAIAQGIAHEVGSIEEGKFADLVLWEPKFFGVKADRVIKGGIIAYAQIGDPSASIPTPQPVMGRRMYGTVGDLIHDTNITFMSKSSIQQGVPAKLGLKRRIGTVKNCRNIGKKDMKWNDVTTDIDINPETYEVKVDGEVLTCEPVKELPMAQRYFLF
# Sequence of Bacillus pasteurii urease (P41021 whole entry, further chain): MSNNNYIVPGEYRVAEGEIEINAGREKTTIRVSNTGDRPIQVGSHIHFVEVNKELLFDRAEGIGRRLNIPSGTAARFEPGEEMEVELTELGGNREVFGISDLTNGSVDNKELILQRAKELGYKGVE
Structure (SMILES),inhibitory activity against Bacillus pasteurii urease (in words) [1],"IC50 [1, 2] [µM]",inhibitory potential against α-chymotrypsin (in words) (α-chymotrypsin),IC50 (α-chymotrypsin) [µM],"IC50 [1, 3] [µM]",IC50 (Jack bean urease; read-out: Urease IC50 ± SEM (Jack bean urease)) [µM],IC50 (Jack bean urease; [4]) [µM],inhibitory activity against Jack bean urease (in words) (Jack bean urease)
O=C1/C(=c2\c3ccccc3n3c(=O)c4ccccc4nc23)Nc2ccccc21 [Candidine],significant inhibitory activity,46.12 ± 0.05,moderate inhibitory potential,44.07 ± 0.04,,,,
"NC(N)=S [Thiourea, reference compound]",,,,,14.03 ± 0.08,18.04 ± 0.01,,
COc1cc(/C=C2\CCn3c2nc2ccccc2c3=O)cc(OC)c1O [Isaindigotone],,29.03 ± 0.04,,22.01 ± 0.06,26.13 ± 0.08,,34.03 ± 0.07,
COc1cc(C2c3c(c4ccccc4[nH]c3=O)C(=O)N3CCCC23)cc(OC)c1O (stereo not shown) [Isaindigotidione],,,,16.09 ± 0.07,20.04 ± 0.09,,29.03 ± 0.04,
O=C1C(c2[nH]c3ccccc3c2C2=c3ccccc3=N/C2=C2\Nc3ccccc3C2=O)=Nc2ccccc21 [Bisindigotin],significant inhibitory activity,,moderate inhibitory potential,34.01 ± 0.07,42.04 ± 0.07,,58.15 ± 0.02,significant inhibitory activity
